Measurements reported in PubChem BioAssay (NCI).
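Five concentrations, 48 hours, 96-well plates. GI50: concentration for 50% inhibition of growth. Definition used: TGI = concentration required for complete inhibition of growth.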

Columns and labels:
Assay in all cases: NCI anticancer screen, dose series, 48 h
LOX IMVI melanoma = tested on: LOX IMVI melanoma
SNB-19 CNS = tested on: SNB-19 CNS
COLO 205 colon = tested on: COLO 205 colon
BT-549 breast = tested on: BT-549 breast
M19-MEL melanoma = tested on: M19-MEL melanoma
LXFL 529 NSCLC = tested on: LXFL 529 NSCLC
DLD-1 colon = tested on: DLD-1 colon
DMS 114 small cell lung = tested on: DMS 114 small cell lung
XF 498 CNS = tested on: XF 498 CNS
SNB-78 CNS = tested on: SNB-78 CNS
DMS 273 small cell lung = tested on: DMS 273 small cell lung
KM20L2 colon = tested on: KM20L2 colon
HOP-18 NSCLC = tested on: HOP-18 NSCLC

SMILES	TGI (LOX IMVI melanoma)	TGI (SNB-19 CNS)	TGI (COLO 205 colon)	TGI (BT-549 breast)	TGI (M19-MEL melanoma)	TGI (LXFL 529 NSCLC)	TGI (DLD-1 colon)	TGI (DMS 114 small cell lung)	TGI (XF 498 CNS)	TGI (SNB-78 CNS)	TGI (DMS 273 small cell lung)	TGI (KM20L2 colon)	TGI (HOP-18 NSCLC)	GI50 (DMS 114 small cell lung)	GI50 (SNB-19 CNS)
O=C(NCCCCCCCCNC(=O)Nc1cccc2ccccc12)Nc1cccc2ccccc12	59.1 µM	> 100 µM	> 100 µM	> 100 µM											
O=C1NC(=O)C(CCC(=O)c2cccc3ccccc23)C(=O)N1	> 100 µM	> 100 µM	> 100 µM	> 100 µM											
CC(C(=O)NCNC(=O)c1ccccc1)C(=O)Nc1ccccc1 (stereo not given)		> 100 µM	> 100 µM	> 100 µM											
CCN(CC)CCCNc1ccc([N+](=O)[O-])c2nc3ccccc3c(N)c12	2.14 µM	5.5 µM		3.32 µM											
COc1c(Sc2c(SCSc3cnc4ccccc4c3Sc3cnc4ccccc4c3OC)cnc3ccccc23)cnc2ccccc12	> 100 µM	77.3 µM	> 100 µM	> 100 µM											
CCCCCCCCCCC/C=C(/C(=O)CCCO[Si](C)(C)C(C)(C)C)C(=O)OC	> 100 µM	> 100 µM	> 100 µM	> 100 µM											
CCOC(=O)C(C)NC(=O)NC12CC3CC(CC(F)(C3)C1)C2 (stereo not given)	> 100 µM	> 100 µM	> 100 µM		> 100 µM	> 100 µM	> 100 µM	> 100 µM	89.4 µM	83.3 µM	> 100 µM	> 100 µM			
O=C1C(Cl)C(c2ccccc2Cl)N1n1cnc2ccccc2c1=O (stereo not given)	> 100 µM	> 100 µM	> 100 µM		> 100 µM	> 100 µM	> 100 µM	> 100 µM	> 100 µM	> 100 µM	> 100 µM	> 100 µM			
FC(F)(F)c1ccc2c(-c3cc[nH]c3)ccnc2c1	48.9 µM	58.8 µM	43.8 µM	68.9 µM											
Cc1cc(C)c(/C=C2\C(=O)Nc3ccccc32)[nH]1	> 100 µM	> 100 µM	> 100 µM	> 100 µM											
Cc1n[nH]c(=O)n1C1CC1	> 100 µM	> 100 µM	> 100 µM	> 100 µM											
CCC1C(NC(=O)OC)C(=O)N1[C@@H](C)c1ccccc1 (stereo not given in full)	> 100 µM	> 100 µM	> 100 µM	> 100 µM											
CCOC(=O)c1c(NC(=S)Nc2ccccc2)sc2c1CCN(C)C2		> 100 µM	> 100 µM	> 100 µM											
COc1ccccc1NC1Oc2cc3c(cc2C(c2cc(OC)c(OC)c(OC)c2)C1C)OCO3 (stereo not given)	> 100 µM	> 100 µM	5.79 µM	> 70.8 µM											
Fc1cc2nc3n(c2cc1F)C(c1c(F)cccc1F)SC3 (stereo not given)	> 100 µM	> 100 µM	> 100 µM	> 100 µM											
COc1cc(/C=C2\CCC(C)C3=C2N=c2s/c(=C/c4ccc(Cl)cc4)c(=O)n2C3c2cc(OC)c(OC)c(OC)c2)cc(OC)c1OC (stereo not given)	> 100 µM	> 100 µM													
COc1cc(C2c3cc4c(cc3OC(NNC(N)=S)C2C)OCO4)cc(OC)c1OC (stereo not given)	> 100 µM	> 100 µM	1.37 µM	62.3 µM											
NC(=O)N/N=C\CC(O)(C(F)(F)Cl)C(F)(F)Cl	> 10 µM	> 10 µM	> 10 µM												
CC(=O)NC1=NC(=O)/C(=C/c2ccccc2Cl)N1C	> 100 µM	> 100 µM	> 100 µM	> 100 µM											
CCOC(=O)C(=[N+]=[N-])C(=O)CSC#N	61.9 µM	> 100 µM	> 100 µM	> 100 µM											
COCN1C(=O)[C@@H]2C[C@@H](O)CN2C(=O)c2ccccc21	> 100 µM	> 100 µM	> 100 µM	> 100 µM											
O=S(=O)(CC(Cl)c1ccccc1)c1nc2ccccc2s1 (stereo not given)	4.04 µM	32.3 µM	22.2 µM	8.72 µM											
O=C(CCN1CCCCC1)Nc1ccc2c(c1)C(=O)c1ccc(NC(=O)CCN3CCCCC3)cc1C2=O	3.43 µM	10.1 µM	24 µM	27.8 µM	> 100 µM	4.64 µM	15 µM	34.7 µM		29.8 µM	3.87 µM	33.2 µM	30.7 µM		
O=c1[nH]c2nc3ccccc3c(=O)n2/c1=C/c1ccccc1	> 100 µM	55.9 µM	> 100 µM	53.8 µM											
Cc1cccc(N=Nc2c(C)nn(C(=O)CC(=O)Nc3ccc(Cl)cc3)c2C)c1	> 100 µM	> 100 µM	> 100 µM	> 100 µM											
CC(=O)NC(CCCCNCc1ccccc1)C(=O)NCc1ccccc1 (stereo not given)	> 100 µM	> 100 µM	> 100 µM		> 100 µM	> 100 µM	> 100 µM	> 100 µM	> 100 µM	> 100 µM	> 100 µM	> 100 µM			
O=C1/C(=C/c2ccccc2Cl)COc2ccc(Br)cc21	> 100 µM		> 100 µM		> 100 µM	> 100 µM	> 100 µM	> 100 µM	> 100 µM	> 100 µM	> 100 µM	> 100 µM	> 100 µM		
NC(=O)N/N=C(\CC1OC(=O)c2ccccc21)c1ccc([N+](=O)[O-])cc1 (stereo not given)	33.9 µM	51.6 µM	> 100 µM		68.1 µM	> 100 µM	47.9 µM		> 100 µM		76.1 µM	96.2 µM			
O=S(Cc1ccccc1)c1ccccc1Cn1cccc1 (stereo not given)	> 100 µM	> 100 µM	> 100 µM	> 100 µM											
COc1cc2c(c(OC)c1OC)-c1ccc(SC)c(=O)cc1[C@@H](NC(=O)c1cccc([N+](=O)[O-])c1)CC2			0.0343 µM		> 100 µM		> 100 µM	0.0365 µM		> 100 µM	70.2 µM	0.0358 µM		0.0165 µM	0.0268 µM
